Laboratory results reported in patent US11384054B2, “Crystalline form of ivacaftor and a process for preparing the same” (ScinoPharm Taiwan, Ltd., priority 2020, dated 2022).
In brackets after ≈: the same amount, converted by molar mass. Read-outs that look alike come from different tables or passages of the source.

Assay: Solubility test of ivacaftor in solvents and acetone/water mixtures at 25° C.
Type: physicochemical
Conditions: organic solvent or mixture
Protocol: “Solvent” refers to a liquid substance capable of dissolving ivacaftor at about 50° C. to about 60° C. The term “anti-solvent” refers to a liquid substance which is not capable of dissolving ivacaftor at about 20° C. to about 30° C. More particularly, solvents and anti-solvents suitable for crystalline forms of ivacaftor are selected by solubility test, such as the Tables 1A, […], and 1C below, taking into consideration of advantages provided by the convenience and efficiency of process operation, the use of more environmentally friendly solvents, mild crystallization conditions, and others.

solubility (N,N-dimethylformamide, N,N-dimethylformamide, 25° C., read-out: Solubility): 109 mg/mL (≈ 277 mM)
solubility (acetone, Acetone, 25° C., read-out: Solubility): 27.9 mg/mL (≈ 71 mM)
solubility (acetone/water, 0% water in acetone, 25° C., read-out: Solubility in acetone/water): 27.9 mg/mL (≈ 71 mM)
solubility (acetone/water, 2% water in acetone, 25° C., read-out: Solubility in acetone/water): 27.9 mg/mL (≈ 71 mM)
solubility (acetone/water, 5% water in acetone, 25° C., read-out: Solubility in acetone/water): 41.4 mg/mL (≈ 106 mM)
solubility (acetone/water, 8% water in acetone, 25° C. (Table 1C), read-out: Solubility in acetone/water): 41.2 mg/mL (≈ 105 mM)
solubility (acetone/water, 10% water in acetone, 25° C., read-out: Solubility in acetone/water): 47.1 mg/mL (≈ 120 mM)
solubility (acetone/water, 15% water in acetone, 25° C., read-out: Solubility in acetone/water): 43.3 mg/mL (≈ 110 mM)
solubility (acetone/water, 30% water in acetone, 25° C., read-out: Solubility in acetone/water): 11 mg/mL (≈ 28 mM)
solubility (acetone/water, 50% water in acetone, 25° C., read-out: Solubility in acetone/water): 0.34 mg/mL (≈ 0.866 mM)
solubility (acetonitrile, Acetonitrile, 25° C., read-out: Solubility): 1.78 mg/mL (≈ 4.54 mM)
solubility (cyclohexane, Cyclohexane, 25° C., read-out: Solubility): 0.34 mg/mL (≈ 0.866 mM)
solubility (dimethyl sulfoxide, Dimethyl sulfoxide, 25° C., read-out: Solubility): 375 mg/mL (≈ 955 mM)
solubility (ethanol, Ethanol, 25° C., read-out: Solubility): 4.5 mg/mL (≈ 11.5 mM)
solubility (ethyl acetate, Ethyl acetate, 25° C., read-out: Solubility): 16.9 mg/mL (≈ 43.1 mM)
solubility (isopropanol, Isopropanol, 25° C., read-out: Solubility): 2.87 mg/mL (≈ 7.31 mM)
solubility (methanol, Methanol, 25° C., read-out: Solubility): 1.98 mg/mL (≈ 5.04 mM)
solubility (methyl ethyl ketone, Methyl ethyl ketone, 25° C., read-out: Solubility): 44.7 mg/mL (≈ 114 mM)
solubility (n-heptane, n-Heptane, 25° C., read-out: Solubility): 0.62 mg/mL (≈ 1.58 mM)
solubility (tetrahydrofuran, Tetrahydrofuran, 25° C., read-out: Solubility): 26.6 mg/mL (≈ 67.6 mM)
SMILES: CC(C)(C)c1cc(C(C)(C)C)c(NC(=O)c2c[nH]c3ccccc3c2=O)cc1O [ivacaftor]
